From patent US9381260B2, “Hypoxia inducible factor-1 pathway inhibitors and uses as anticancer and imaging agents” (EMORY UNIVERSITY, priority 2011, dated 2016)
pIC50: −log10 of the molar value. Converted amounts (≈) assume the structure as drawn. One block for each compound: values may come before it.

How the values were obtained:
[1] = Metabolic stability in homogenates of mouse liver; type: in vitro ADME; details: homogenates of mouse liver in PBS 1:2 (w/v), ex vivo; for half-life: mouse, mouse liver homogenate, read-out: half-life (hepatic metabolic stability) (converted)
Experimental: Metabolic stabilities of 1, 6a, 6d, 6g, and 6l were measured in mouse plasma and homogenates of mouse liver in PBS [1:2 (w/v)].

[2] = Aqueous solubility by HPLC-UV on filtered saturated suspensions; type: physicochemical; details: for aqueous solubility (n = 3) / solubility: HPLC-UV, saturated aqueous suspension, PTFE filter 0.2 μm; for aqueous solubility relative to 1: fold more soluble than compound 1; for solubility: water, thermodynamic from solid, read-out: aqueous solubility (n = 3)
From the text: Aqueous solubilities of 1, 6a, 6d, and 6g were quantified by HPLC coupled with a UV detector on saturated aqueous suspensions after filtration with a polytetrafluoroethylene (PTFE) filter (pore size 0.2 μm). 6a and 6d were chosen due to their strong activity in the HRE-reporter assay, and 6g was picked to evaluate the influence of the methoxy group attached to the C-8 position of the chromene ring. Aqueous solubilities of 6a, 6d, and 6g are, respectively, 100, 20, and 9000 times better than that of 1, which are consistent with the log Sw predictions for 6a and 6d. The substitution of hydrogen with a methoxy group at the C-8 position of the chromene ring increased the aqueous solubility by 90 times (compare 6a and 6g).

[3] = log P7.4 by shake flask or HPLC method (OECD guidelines); type: physicochemical; details: pH 7.4
Experimental: Experimental determinations of log P7.4, aqueous solubility, and metabolic stability of a selected number of the heteroarylsulfonamides were performed to further characterize the compounds (Table 2 log P7.4 was measured by either the shake flask method (6a, 6g) or the HPLC method (1, 6b-6f, 6h-6l) according to OECD guidelines. Most compounds followed the trends predicted by in silico calculations, and the measured values were smaller than the predicted values by 1.0-1.5. When a methoxy group or hydroxyl group is placed at the C-8 position of the chromene ring instead of a hydrogen, as in 6g, 6h, and 6l, the log P7.4 value decreased by more than 2 from the predicted values to result in 1.2-1.3. The presence of a 2-methylpropan-2-yl group in region 2 conferred high log P7.4 values, and heteroarylsulfonyl groups in region 1 also affected log P7.4 values, as shown for 6c, 6i, 6j, and 6k.

[4] = Aqueous solubility by laser nephelometry at pH 3.0, 5.0, 7.4; type: physicochemical; details: pH 5.0 and pH 3.0 versus pH 7.4
HIF-1α = HIF-1α protein levels by Western blot in LN229-V6R cells under hypoxia; type: cell-based, human; details: 24 h; for effect on HIF-1α protein levels: 3-100 μM
Experimental: HIF-1 is a heterodimer of HIF-1α and HIF-1β subunits, which then associates with p300 or CBP cofactors to form an active transcriptional complex. […] To determine whether the heteroarylsulfonamides retain this property, we determined the levels of HIF-1α protein under hypoxia in LN229-V6R cells. […] We investigated if the levels of HIF-1α protein would correlate with transcriptional inhibition of the HRE reporter by the compounds. LN229-V6R cells were treated with the compounds at concentrations of 3, 6, 12, 25, 50, and 100 μM under hypoxia for 24 h, and then HIF-1α protein levels in the cell extracts were examined by Western blotting. […] 6g and 61 decreased HIF-1a levels in a dose-dependent fashion starting from 12 and 25 μM, respectively (FIG. 3). […] The reduction in HIF-1α levels afforded by all three compounds at 100 μM may reflect nonspecific cytotoxicity.

[5] = test system: LN229-Lux cells (constitutive luciferase reporter gene); experiment: Constitutive luciferase reporter control assay in LN229-Lux cells; type: cell-based, human; details: control for luciferase inhibition
Experimental: (§1) Results are plotted as percent of luciferase activity found in extracts of untreated cells used as controls. (A) Luciferase activity in extracts of LN229-V6R cells, which contain a HIF-inducible luciferase reporter gene. The cells were grown under hypoxia to activate HIF. (B) Luciferase activity in extracts of LN229-Lux cells, which contain a constitutively expressed luciferase reporter gene. Results shown are from cells grown under normoxia; similar results were obtained under hypoxia.
(§2) The effects of the 12 heteroarylsulfonamides on HIF transcriptional activity under hypoxia were measured by determining the luciferase activity present in LN229-V6R cells, which contain a stably integrated hypoxia/HIF inducible luciferase reporter gene. As a control for the absence of inhibition on luciferase enzyme per se, we also tested 1 and five heteroarylsulfonamides in LN229-Lux cells that contain a constitutive luciferase reporter gene driven by a retroviral LTR promoter. An Hsp90 inhibitor, 17-DMAG, and 1 were used as positive controls. […] The heteroarylsulfonamides decreased HIF-1 activity in a dose-dependent fashion with IC50 values below (6a, 6b, 6d-6f, 6h, 6i, 6l) or close to 5 μM (6c, 6g, 6j, 6k) (FIG. 2).

[6] = test system: HIF-1 transcriptional activity; experiment: HIF-inducible luciferase reporter assay in LN229-V6R cells under hypoxia; type: cell-based, human
Experimental: as §1, §2

[7] = test system: LN229 human glioblastoma cells; experiment: Clonogenicity assay LN229; type: cell-based; details: LN-229, 336 h, 14 days
From the text: (§3) To determine whether 6a, 6g, and 6l altered tumor cell growth in culture, we performed sulforhodamine B (SRB) assays in LN229-V6R glioma cells in 3 days, and to further examine the cell growth inhibitory activity of 6a, 6g, and 61 in an independent biological assay, we performed clonogenicity assays in LN229 human glioblastoma cells and HFF-1 immortalized human fibroblasts, over a period of 14 days.

[8] = test system: HFF-1 immortalized human fibroblasts; experiment: Clonogenicity assay HFF-1; type: cell-based; details: HFF-1, 336 h, 14 days
From the text: as §3

- log P7.4 [3]: 4.4
Structure (SMILES): CC(C)CN(Cc1ccc2c(c1)C=CC(C)(C)O2)S(=O)(=O)c1nccs1 [Compound 6k, N-[(2,2-Dimethyl-2H-chromen-6-yl)methyl]-N-(2-methylpropyl)-1,3-thiazole-2-sulfonamide]

- log P7.4 [3]: 3.8
Structure (SMILES): CC1(C)C=Cc2cc(CN(C3CCCC3)S(=O)(=O)c3ccccn3)ccc2O1 [Compound 6f, N-(Cyclopentyl)-N-[(2,2-dimethyl-2H-chromen-6-yl)methyl]pyridine-2-sulfonamide]

- pIC50 ([7]; LN229, hypoxia): < 4.00
- pIC50 ([7]; LN229, normoxia): 4.16
- half-life (hepatic metabolic stability) [1]: 15 h
- half-life [1]: 13 to 20 h
- aqueous solubility relative to 1 [2]: 9000 times
Structure (SMILES): COc1cc(CN(C(C)C)S(=O)(=O)c2ccccn2)cc2c1OC(C)(C)C=C2 [Compound 6g]
- concentration from which HIF-1α levels decreased dose-dependently (HIF-1α): 12 µM
- pIC50 ([8]; HFF-1, hypoxia): < 4.00
- pIC50 ([8]; HFF-1, normoxia): 4.26

- log P7.4 [3]: 3.0
Structure (SMILES): CC1(C)C=Cc2cc(CN(C3CCC3)S(=O)(=O)c3ccccn3)ccc2O1 [Compound 6e, N-(Cyclobutyl)-N-[(2,2-dimethyl-2H-chromen-6-yl)methyl]pyridine-2-sulfonamide]

- pIC50 ([6]; Homo sapiens, LN229-V6R cells): > 5.30
- log P7.4 [3]: 3.6
Structure (SMILES): CC(C)CN(Cc1ccc2c(c1)C=CC(C)(C)O2)S(=O)(=O)c1ccncc1 [Compound 6i, N-[(2,2-Dimethyl-2H-chromen-6-yl)methyl]-N-(2-methylpropyl)pyridine-4-sulfonamide]

- log P7.4 [3]: 3.1
Structure (SMILES): CC(C)CN(Cc1ccc2c(c1)C=CC(C)(C)O2)S(=O)(=O)c1nccn1C [Compound 6j, N-[(2,2-Dimethyl-2H-chromen-6-yl)methyl]-N-(2-methylpropyl)-1-methyl-1H-imidazole-2-sulfonamide]

The next lines start with the compound.

Structure (SMILES): CC1(C)C=Cc2cc(CN(CC3CC3)S(=O)(=O)c3ccccn3)ccc2O1 [Compound 6d, N-(Cyclopropylmethyl)-N-[(2,2-dimethyl-2H-chromen-6-yl)methyl]pyridine-2-sulfonamide]
- half-life (hepatic metabolic stability) [1]: 13 h
- half-life [1]: 13 to 20 h
- aqueous solubility (n = 3) [2]: 0.2 ± 0.07 µM (≈ 0.0769 µg/mL)
- aqueous solubility relative to 1 [2]: 20 times
- solubility [2]: 0.1 µg/mL (≈ 0.26 µM)
- log P7.4 [3]: 3.1

Structure (SMILES): COc1ccc(S(=O)(=O)N(Cc2ccc3c(c2)C=CC(C)(C)O3)c2ccccc2)cc1OC [Compound 1, 3,4-Dimethoxy-N-[(2,2-dimethyl-2H-chromene-6-yl)methyl]-N-phenylbenzenesulfonamide, reference compound]
- effect of low pH on aqueous solubility [4]: pH did not affect aqueous solubility
- half-life [1]: 11 h
- effect on HIF-1α protein levels (HIF-1α): does not antagonize hypoxia-induced HIF-1α expression
- effect on luciferase activity in LN229-Lux cells [5]: reduced luciferase activity only in LN229-V6R cells
- activity at 2.5 µM ([6]; Homo sapiens, 2.5 μM, LN229-V6R cells, read-out: remaining HIF-1 activity at 2.5 μM, % of control): 18%
- aqueous solubility (n = 3) [2]: 0.009 µM (≈ 0.00419 µg/mL)
- solubility [2]: 0.003 µg/mL (≈ 0.00644 µM)
- log P7.4 [3]: 3.7

Structure (SMILES): CO[C@H]1/C=C\C=C(/C)C(=O)NC2=CC(=O)C(NCCN(C)C)=C(C[C@@H](C)C[C@H](OC)[C@H](O)[C@@H](C)/C=C(\C)[C@@H]1OC(N)=O)C2=O [17-DMAG, reference compound]
- effect on luciferase activity in LN229-Lux cells [5]: inhibited
- effect on luciferase activity in LN229-V6R cells [6]: inhibited

Structure (SMILES): CC(C)CN(Cc1ccc2c(c1)C=CC(C)(C)O2)S(=O)(=O)c1ccccn1 [Compound 6c, N-[(2,2-Dimethyl-2H-chromen-6-yl)methyl]-N-(2-methylpropyl)pyridine-2-sulfonamide]
- log P7.4 [3]: 4.1

Structure (SMILES): CC(C)N(Cc1ccc2c(c1)C=CC(C)(C)O2)S(=O)(=O)c1ccccn1 [Compound 6a, N-[(2,2-Dimethyl-2H-chromen-6-yl)methyl]-N-(propan-2-yl)pyridine-2-sulfonamide]
- effect of low pH on aqueous solubility [4]: 50-60 times
- pIC50 ([7]; LN229, hypoxia): 3.87
- pIC50 ([7]; LN229, normoxia): 4.09
- half-life (hepatic metabolic stability) [1]: 20 h
- half-life [1]: 13 to 20 h
- effect on HIF-1α protein levels (HIF-1α): no effect on HIF-1α levels at all concentrations tested, except for a slight reduction at the highest concentration (100 μM)
- inhibition of HIF-1 transcriptional activity (HRE-reporter) at 10 μM ([6]; 10 μM, LN229-V6R cells, 1 day): inhibited completely
- pIC50 ([6]; Homo sapiens, LN229-V6R cells): > 5.30
- aqueous solubility (n = 3) [2]: 1 ± 0.1 µM (≈ 0.372 µg/mL)
- aqueous solubility relative to 1 [2]: 100 times
- solubility [2]: 0.3 µg/mL (≈ 0.805 µM)
- log P7.4 [3]: 2.0
- pIC50 ([8]; HFF-1, hypoxia): 4.03
- pIC50 ([8]; HFF-1, normoxia): 4.21

Structure (SMILES): CC1(C)C=Cc2cc(CN(C3CC3)S(=O)(=O)c3ccccn3)ccc2O1 [Compound 6b, N-Cyclopropyl-N-[(2,2-dimethyl-2H-chromen-6-yl)methyl]pyridine-2-sulfonamide]
- pIC50 ([6]; Homo sapiens, LN229-V6R cells): > 5.30
- log P7.4 [3]: 3.0
